Assay results taken from patent publication US11542274B1, “Therapeutic compounds and methods of use thereof” (AGENCY FOR SCIENCE, TECHNOLOGY AND RESEARCH (A*STAR), priority 2019, dated 2023).

target: truncated CRBN (319-427) (Homo sapiens (Human), UniProt Q96SW2); experiment: Fluorescence binding assay (fluorescence quenching), affinity to E3-CEREBLON (CRBN)-ubiquitin ligase; conditions: ubiquitination moiety, pH 6.5
Protocol: Fluorescence quenching end point measurements were performed in black polystyrene 384-plates on Tecan Safire monochromator reader with the following settings: excitation 280 nm; excitation bandwidth 10.0 nm; emission collection 340 nm; emission bandwidth 20.0 nm; high sensitivity flash mode; integration time 40 μS; delay 0 μm. All measurements were done in duplicates; GraphPad Prism 5.03 was used for data evaluation, curve fitting, plotting and determination of IC50 values.
Serial dilutions of each tested ligands were mixed with truncated CRBN (319-427) to a final volume of 25 μL in the assay buffer (20 mM sodium phosphate buffer, pH 6.5, with 150 mM sodium chloride). The final concentration of CRBN in all assay will be 5-10 μM with DMSO level at 4%. A control lanes were prepared with only tested ligands without the addition of CRBN, top up with assay buffer to 25 μL. Plates were incubated for 5 minutes and analyzed using the monochromator plate reader.
IC50 is the compound concentration that causes 50% quenching of the desired activity.

truncated CRBN (319-427), sequence (Q96SW2 319-427): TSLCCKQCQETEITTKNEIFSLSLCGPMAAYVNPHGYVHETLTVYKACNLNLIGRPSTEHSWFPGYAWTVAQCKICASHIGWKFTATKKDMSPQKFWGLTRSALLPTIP

| SMILES | IC50 |
| --- | --- |
| O=C1Cc2ccc(-c3ccncc3)cc2N1 [Compound 002, 6-(pyridin-4-yl)indolin-2-one] | 100 to 300 µM |
| O=C1Cc2ccc(-c3cccnc3)cc2N1 [Compound 003, 6-(pyridin-3-yl)indolin-2-one] | > 300 µM |
| O=C1Cc2ccc(-c3ccccn3)cc2N1 [Compound 004, 6-(pyridin-2-yl)indolin-2-one] | 100 to 300 µM |
| Cc1cc(-c2ccc3c(c2)NC(=O)C3)ccn1 [Compound 005, 6-(2-methylpyridin-4-yl)indolin-2-one] | 100 to 300 µM |
| Cc1cnccc1-c1ccc2c(c1)NC(=O)C2 [Compound 006, 6-(3-methylpyridin-4-yl)indolin-2-one] | > 300 µM |
| CC1C(=O)Nc2cc(-c3ccncc3)ccc21 (centres unmarked) [Compound 007, 3-methyl-6-(pyridin-4-yl)indolin-2-one] | 100 to 300 µM |
| CN1C(=O)Cc2ccc(-c3ccncc3)cc21 [Compound 008, 1-methyl-6-(pyridin-4-yl)indolin-2-one] | > 300 µM |
| O=C1Cc2ccc(-c3ccnc(Cl)c3)cc2N1 [Compound 009, 6-(2-chloropyridin-4-yl)indolin-2-one] | > 300 µM |
| COc1cc(-c2ccc3c(c2)NC(=O)C3)ccn1 [Compound 010, 6-(2-methoxypyridin-4-yl)indolin-2-one] | 100 to 300 µM |
| CCOC(=O)c1cc(-c2ccc3c(c2)NC(=O)C3)ccn1 [Compound 014, ethyl 4-(2-oxoindolin-6-yl)picolinate] | 100 to 300 µM |
| Cn1cc(-c2ccc3c(c2)NC(=O)C3)cn1 [Compound 015, 6-(1-methyl-1H-pyrazol-4-yl)indolin-2-one] | > 300 µM |
| O=C1Cc2ccc(-c3ccc4[nH]ccc4c3)cc2N1 [Compound 016, 6-(1H-indol-5-yl)indolin-2-one] | > 300 µM |
| O=C1Cc2ccc(-c3cnc4[nH]ccc4c3)cc2N1 [Compound 017, 6-(1H-pyrrolo[2,3-b]pyridin-5-yl)indolin-2-one] | > 300 µM |
| O=C1Cc2ccc(-c3ccc(CN4CCNCC4)cc3)cc2N1 [Compound 018, 6-(4-(piperazin-1-ylmethyl)phenyl)indolin-2-one] | 1 to 100 µM |
| O=C1Cc2ccc(-c3cccc(CN4CCNCC4)c3)cc2N1 [Compound 019, 6-(3-(piperazin-1-ylmethyl)phenyl)indolin-2-one] | > 300 µM |
| O=C1Cc2ccc(-c3ccc(C(=O)N4CCNCC4)cc3)cc2N1 [Compound 020, 6-(4-(piperazine-1-carbonyl)phenyl)indolin-2-one] | > 300 µM |
| O=C1Cc2ccc(-c3cccc(C(=O)N4CCNCC4)c3)cc2N1 [Compound 021, 6-(3-(piperazine-1-carbonyl)phenyl)indolin-2-one] | > 300 µM |
| CNC(=O)c1ccc(-c2ccc3c(c2)NC(=O)C3)cc1 [Compound 022, N-methyl-4-(2-oxoindolin-6-yl)benzamide] | 1 to 100 µM |
| CNC(=O)c1cccc(-c2ccc3c(c2)NC(=O)C3)c1 [Compound 023, N-methyl-3-(2-oxoindolin-6-yl)benzamide] | 1 to 100 µM |
| O=C1Cc2ccc(C(=O)Nc3ccccc3)cc2N1 [Compound 024, 2-oxo-N-phenylindoline-6-carboxamide] | > 300 µM |
| O=C1Cc2ccc(C(=O)NC3CCCCC3)cc2N1 [Compound 025, N-cyclohexyl-2-oxoindoline-6-carboxamide] | > 300 µM |
| CN1CCC(NC(=O)c2ccc3c(c2)NC(=O)C3)CC1 [Compound 027, N-(1-methylpiperidin-4-yl)-2-oxoindoline-6-carboxamide] | > 300 µM |
| CN1CCN(CCNC(=O)c2ccc3c(c2)NC(=O)C3)CC1 [Compound 028] | > 300 µM |
| O=C1Cc2ccc(C(=O)N3CCCCC3)cc2N1 [Compound 029, 6-(piperidine-1-carbonyl)indolin-2-one] | > 300 µM |
| O=C1Cc2cc(Cl)c(C(=O)N3CCCCC3)cc2N1 [Compound 030, 5-chloro-6-(piperidine-1-carbonyl)indolin-2-one] | > 300 µM |
| O=C1Cc2ccc(C(=O)Nc3ccncc3)cc2N1 [Compound 031, 2-oxo-N-(pyridin-4-yl)indoline-6-carboxamide] | 100 to 300 µM |
